Laboratory results from US20090162413A1 (priority 1998, published 2009).
Read-outs that look alike come from different tables or passages of the source.

Experiment: Phase 1 single escalating intravenous dose safety and pharmacokinetics (Example 6)
Type: in vivo, human
Conditions: for β: elimination rate constant; for tolerability: single IV doses of 100 to 900 μg
Procedure: In the present, first-time-in-man study, the safety and pharmacokinetics of zotarolimus were investigated following intravenous bolus administration of zotarolimus over a 100 to 900 μg dose range. The intravenous bolus dose administration would mimic the most rapid unexpected release of zotarolimus from drug-coated stents in vivo.
This was a Phase 1, single escalating dose, double-blind, randomized, placebo-controlled, single-center study. Sixty (60) adult healthy males were divided into 5 IV dose groups of 100, 300, 500, 700, and 900 μg.
Subjects were randomly assigned to receive a single intravenous dose of zotarolimus or a matching intravenous placebo under fasting conditions, as shown in the dosing scheme shown in Table 9.
Higher doses were administered after evaluating the safety data from the preceding lower dose groups. The treatment groups were separated by at least 7 days. For safety reasons, each treatment group was divided into two cohorts of six subjects and the doses of the two cohorts of a group were separated by at least 1 day.
Doses were administered as IV bolus over 3 minutes, with 8 subjects. Four subjects received zotarolimus and 4 subjects received placebo in each dose group. Blood concentrations of zotarolimus were sampled for 168 hours and measured using LC-MS/MS with a LOQ of 0.20 ng/mL
Seven (7)-mL blood samples were collected by venipuncture into evacuated collection tubes containing edetic acid (EDTA) prior to dosing (0 hour) and at 0.083 (5 min), 0.25, 0.5, 1, 2, 4, 8, 12, 16, 24, 36, 48, 72, 96, 120, 144, and 168 hours after dosing on Study Day 1.
Blood concentrations of zotarolimus were determined using a validated liquid/liquid extraction HPLC tandem mass spectrometric method (LC-MS/MS) (Ji et al., 2004). The lower limit of quantification of zotarolimus was 0.20 ng/mL using 0.3 mL blood sample. All calibration curves had coefficient of determination (r^2) values greater than or equal to 0.9923.
Safety was evaluated based on adverse event, physical examination, vital signs, ECG, injection site and laboratory tests assessments.
Pharmacokinetic parameter values of zotarolimus were estimated using noncompartmental methods.
To investigate the questions of dose proportionality and linear pharmacokinetics, an analysis of covariance (ANCOVA) was performed. Subjects were classified by dose level, and body weight was a covariate. The variables analyzed included β, Vdβ, dose-normalized C5, and logarithms of dose-normalized AUC0-last and dose-normalized AUC0-inf. The primary test of the hypothesis of invariance with dose was a test on dose-level effects with good power for a monotonic function of dose. In addition, the highest and lowest dose levels were compared within the framework of the ANCOVA

[1] = single IV bolus 100 μg, mean ± SD
[2] = single IV bolus 300 μg, mean ± SD
[3] = single IV bolus 500 μg, mean ± SD
[4] = single IV bolus 700 μg, mean ± SD
[5] = single IV bolus 900 μg, mean ± SD

In the case of `CO[C@H]1C[C@@H]2CC[C@@H](C)[C@@](O)(O2)C(=O)C(=O)N2CCCC[C@H]2C(=O)O[C@H]([C@H](C)C[C@@H]2CC[C@H](n3cnnn3)[C@H](OC)C2)CC(=O)[C@H](C)/C=C(\C)[C@@H](O)[C@@H](OC)C(=O)[C@H](C)C[C@H](C)/C=C/C=C/C=C/1C` [zotarolimus], the “dose proportionality of pharmacokinetics” value (IV, 100-900 μg dose range, with respect to C5 and AUC0-inf) is reported as “dose-proportional”, the clearance (male, human, whole blood, range of means over single IV doses 100-900 μg, read-out: mean clearance) is reported as 48.3 to 59.2 mL/min and the Vd (male, human, whole blood, range of means over single IV doses 100-900 μg, read-out: mean volume of distribution) is reported as 113 to 202 L. The half-life (male, human, whole blood, range of means over the studied single IV doses 100-900 μg, read-out: mean half-life) was 26 to 40.2 h, the half-life (male, human, whole blood, single IV bolus 100 μg, harmonic mean ± pseudo-standard deviation, read-out: t1/2 (converted)) was 26 ± 6 h and the AUC(0-t) (male, human, whole blood, single IV bolus 100 μg, mean ± SD) was 24.6 ± 5.89 ng·h/mL. For the same compound, the AUC(0-inf) (male, human, whole blood, single IV bolus 100 μg, mean ± SD, read-out: AUC0-inf) was 35.3 ± 6.15 ng·h/mL, the clearance (male, human, whole blood, single IV bolus 100 μg, mean ± SD, read-out: CL (converted)) was 48.3 mL/min and the half-life (male, human, whole blood, single IV bolus 300 μg, harmonic mean ± pseudo-standard deviation, read-out: t1/2 (converted)) was 35.9 ± 4.6 h. It also gave an AUC(0-t) (male, human, whole blood, single IV bolus 300 μg, mean ± SD) of 77.8 ± 13.7 ng·h/mL, an AUC(0-inf) (male, human, whole blood, single IV bolus 300 μg, mean ± SD, read-out: AUC0-inf) of 91.2 ± 14.7 ng·h/mL and a clearance (male, human, whole blood, single IV bolus 300 μg, mean ± SD, read-out: CL (converted)) of 56 mL/min. The half-life (male, human, whole blood, single IV bolus 500 μg, harmonic mean ± pseudo-standard deviation, read-out: t1/2 (converted)) was 40.2 ± 7.8 h, the concentration at 5 min (male, human, whole blood, single IV bolus 500 μg, healthy males, blood, concentration at 5 minutes, mean ± SD (N = 7), read-out: C5) was 56.5 ± 27.5 ng/mL and the AUC(0-t) (male, human, whole blood, single IV bolus 500 μg, mean ± SD) was 146 ± 32.4 ng·h/mL. For the same compound, the AUC(0-inf) (male, human, whole blood, single IV bolus 500 μg, mean ± SD, read-out: AUC0-inf) was 162 ± 29.6 ng·h/mL, the clearance (male, human, whole blood, single IV bolus 500 μg, mean ± SD, read-out: CL (converted)) was 52.8 mL/min and the AUC(0-t) (male, human, whole blood, single IV bolus 700 μg, mean ± SD) was 208 ± 19.4 ng·h/mL. The AUC(0-inf) (male, human, whole blood, single IV bolus 700 μg, mean ± SD, read-out: AUC0-inf) was 222 ± 19.6 ng·h/mL, the AUC(0-t) (male, human, whole blood, single IV bolus 900 μg, mean ± SD) was 241 ± 19.2 ng·h/mL and the AUC(0-inf) (male, human, whole blood, single IV bolus 900 μg, mean ± SD, read-out: AUC0-inf) was 254 ± 17.6 ng·h/mL. For the same compound, the clearance (male, human, whole blood, single IV bolus 900 μg, mean ± SD, read-out: CL (converted)) was 59.2 mL/min, the β [1] was 0.027 ± 0.006 h⁻¹ and the AUC0-inf/Dose [1] was 0.35 ± 0.06 ng·h/mL/µg. For the same compound, the AUC0-last/Dose [1] was 0.25 ± 0.06 ng·h/mL/µg, the C5/Dose [1] was 0.13 ± 0.03 ng/mL/µg and the Vdβ [1] was 113 ± 23 L. For the same compound, the β [2] was 0.019 ± 0.002 h⁻¹, the AUC0-inf/Dose [2] was 0.30 ± 0.05 ng·h/mL/µg and the AUC0-last/Dose [2] was 0.26 ± 0.05 ng·h/mL/µg. The C5/Dose [2] was 0.12 ± 0.03 ng/mL/µg, the Vdβ [2] was 175 ± 23 L and the β [3] was 0.017 ± 0.003 h⁻¹. For the same compound, the C5 (single IV bolus 500 μg, healthy males, blood, concentration at 5 minutes, mean ± SD (N = 7)) was 56.50 ± 27.54 ng/mL, the AUC0-inf/Dose [3] was 0.32 ± 0.06 ng·h/mL/µg and the AUC0-last/Dose [3] was 0.29 ± 0.06 ng·h/mL/µg. The AUC(0-inf) [3] was 162.44 ± 9.58 ng·h/mL, the C5/Dose [3] was 0.11 ± 0.05 ng/mL/µg and the Vdβ [3] was 190 ± 49 L. The β [4] was 0.020 ± 0.001 h⁻¹, the t1/2 (single IV bolus 700 μg, harmonic mean ± pseudo-standard deviation) was 35.0 ± 2.4 h and the AUC0-inf/Dose [4] was 0.32 ± 0.03 ng·h/mL/µg. It also gave an AUC0-last/Dose [4] of 0.30 ± 0.03 ng·h/mL/µg, a C5/Dose [4] of 0.13 ± 0.01 ng/mL/µg and a CL [4] of 3.18 ± 0.28 L/h. It also gave a Vdβ [4] of 161 ± 15 L, a β [5] of 0.018 ± 0.002 h⁻¹ and a t1/2 (single IV bolus 900 μg, harmonic mean ± pseudo-standard deviation) of 39.0 ± 3.9 h. It also gave an AUC0-inf/Dose [5] of 0.28 ± 0.02 ng·h/mL/µg, an AUC0-last/Dose [5] of 0.27 ± 0.02 ng·h/mL/µg and a C5/Dose [5] of 0.12 ± 0.02 ng/mL/µg. The Vdβ [5] was 202 ± 29 L, the serious adverse events (single IV doses 100-900 μg) was “no serious adverse events” and the tolerability (healthy males) was “without safety concerns”. For the same compound, the tolerability (healthy males, listed as Zotarolimus) was “generally well tolerated” and the “most common treatment-emergent adverse events” value (single IV doses, reported by two or more subjects in any one treatment group) was “injection site reaction and pain”.
